Experimental data taken from paper PMC6934184, “Selective DNA-PKcs inhibition extends the therapeutic index of localized radiotherapy and chemotherapy” (The Journal of Clinical Investigation, 2019).

Molecular target: T1, DYRK4 (Homo sapiens, UniProt Q9NR20)
T1 construct: purchased Thermo Fisher Scientific (Life Technologies) SelectScreen
Assay: SelectScreen Z'LYTE
Assay type: biochemical
Outline: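 Percent values come from Thermo SelectScreen profiling of NU5455, combining activity and binding assays. CSF1R was run in Z'LYTE format at Km app ATP, and CAMK1 in Adapta format with ATP listed at 10.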

T1 sequence (Q9NR20 whole entry): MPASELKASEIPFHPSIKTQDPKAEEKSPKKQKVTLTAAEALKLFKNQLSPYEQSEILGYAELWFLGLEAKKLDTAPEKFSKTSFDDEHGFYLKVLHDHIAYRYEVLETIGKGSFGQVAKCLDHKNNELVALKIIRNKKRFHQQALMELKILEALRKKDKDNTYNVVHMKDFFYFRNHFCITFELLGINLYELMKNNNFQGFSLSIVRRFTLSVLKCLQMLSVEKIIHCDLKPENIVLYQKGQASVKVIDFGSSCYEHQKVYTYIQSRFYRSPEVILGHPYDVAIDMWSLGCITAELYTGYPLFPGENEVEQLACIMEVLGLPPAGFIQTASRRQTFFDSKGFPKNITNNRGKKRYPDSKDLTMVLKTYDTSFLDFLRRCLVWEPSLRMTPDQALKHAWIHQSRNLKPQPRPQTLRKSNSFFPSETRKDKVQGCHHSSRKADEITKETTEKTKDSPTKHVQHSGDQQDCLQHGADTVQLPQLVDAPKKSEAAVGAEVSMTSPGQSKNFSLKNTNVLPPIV

CN(C(=O)CN1CCOCC1)c1ccc2sc3c(-c4cccc5c(=O)cc(N6CC7CCC(C6)O7)oc45)cccc3c2c1 [NU5455]
inhibition at 1 µM: 0.3%
